This experiment addresses T1, human PAD4 (Homo sapiens, UniProt Q9UM07).
T1 construct: human PAD4 (NM_012387), A2P663, was PCR amplified; His-SUMO (N, cleaved yes); made in house; host or cells: E. coli BL21(DE3)
The experiment in a line: In vitro PAD4 BAEE biochemical assay. To be noted: human PAD4, BAEE substrate; 5 nM PAD4, 2 mM calcium chloride, 3 mM BAEE; geometric mean of multiple experiments. In short, it runs like this:
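Tag-free recombinant hPAD4 (5 nM), 2 mM CaCl2, 3 mM BAEE, 50 mM MOPS pH 7.6, 2 mM DTT; 30 min compound preincubation, 2 h reaction, all 25 °C. EDTA quench; ammonia read via o-phthalaldehyde amine coupling, 1 h.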
T1 sequence (Q9UM07 2-663): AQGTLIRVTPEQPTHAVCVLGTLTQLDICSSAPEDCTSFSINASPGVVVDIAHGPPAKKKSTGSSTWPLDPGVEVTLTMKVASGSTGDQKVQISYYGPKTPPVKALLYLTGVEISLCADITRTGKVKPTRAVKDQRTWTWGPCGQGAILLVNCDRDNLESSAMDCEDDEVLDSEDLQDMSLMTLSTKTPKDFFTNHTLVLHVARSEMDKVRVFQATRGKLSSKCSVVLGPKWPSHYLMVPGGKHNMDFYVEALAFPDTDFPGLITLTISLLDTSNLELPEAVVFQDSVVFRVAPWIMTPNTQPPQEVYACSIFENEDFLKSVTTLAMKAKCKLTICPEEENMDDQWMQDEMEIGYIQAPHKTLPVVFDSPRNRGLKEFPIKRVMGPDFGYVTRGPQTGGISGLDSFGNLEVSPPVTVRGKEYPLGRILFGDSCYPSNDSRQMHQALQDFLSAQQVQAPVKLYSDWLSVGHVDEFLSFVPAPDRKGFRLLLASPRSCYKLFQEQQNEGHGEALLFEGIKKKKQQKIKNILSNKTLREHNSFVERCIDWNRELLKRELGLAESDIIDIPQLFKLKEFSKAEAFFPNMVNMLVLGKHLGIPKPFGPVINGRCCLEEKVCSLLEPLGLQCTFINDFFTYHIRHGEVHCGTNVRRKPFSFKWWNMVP
What is called IC50 is the midpoint of a concentration-inhibition curve. On to `COc1cc(C(=O)N2[C@H]3CC[C@@H]2[C@H](N)C3)cc2nc(-c3cc4ccc([C@@H](C)N5CCNC5=O)nc4n3CC3CC3)c(C)n12` [Example 273, 1-[(1~{R})-1-[2-[7-[(1~{R},2~{R},4~{S})-2-amino-7-azabicyclo[2.2.1]heptane-7-carbonyl]-5-methoxy-3-methylimidazo [1,2-a]pyridin-2-yl]-1-(cyclopropylmethyl)pyrrolo [2,3-b]pyridin-6-yl]ethyl] imidazolidin-2-one], for which the IC50 is 83.1 nM.

For `Cc1c(-c2cc3ccc(N(C(F)F)S(C)(=O)=O)nc3n2CC2CC2)nc2cc(C(=O)N3CCC[C@@H](N)C3)cc(N(C)C)n12` [Example 422, ~{N}-[2-[7-[(3~{R})-3-aminopiperidine-1-carbonyl]-5-(dimethylamino)-3-methylimidazo[1,2-a]pyridin-2-yl]-1-(cyclopropylmethyl)pyrrolo [2,3-b]pyridin-6-yl]-~{N}-(difluoromethyl) methanesulfonamide], the IC50 was 6370 nM.

In the case of `COc1cc(C(=O)N2[C@H]3CC[C@@H]2[C@H](N)C3)cc2nc(-c3cc4ccc([C@@H](C)NC(=O)[C@H](C)O)nc4n3CC3CC3)c(C)n12` [Example 94, (2~{S})-~{N}-[(1~{R})-1-[2-[7-[(1~{R},2~{R},4~{S})-2-amino-7-azabicyclo [2.2.1]heptane-7-carbonyl]-5-methoxy-3-methylimidazo [1,2-a]pyridin-2-yl]-1-(cyclopropylmethyl)pyrrolo [2,3-b]pyridin-6-yl]ethyl]-2-hydroxypropanamide], the IC50 came out at 38 nM.

As to `COc1cc(C(=O)N2[C@H]3CC[C@@H]2[C@H](N)C3)cc2nc(-c3cc4ccc([C@@H](C)NC(=O)c5cocn5)nc4n3CC3CC3)c(C)n12` [Example 105, ~{N}-[(1~{R})-1-[2-[7-[(1~{R},2~{R},4~{S})-2-amino-7-azabicyclo[2.2.1]heptane-7-carbonyl]-5-methoxy-3-methylimidazo [1,2-a]pyridin-2-yl]-1-(cyclopropylmethyl)pyrrolo [2,3-b]pyridin-6-yl]ethyl]-1,3-oxazole-4-carboxamide], the IC50 came out at 56 nM.

As to `CCc1c(-c2cc3ccc(N(C(F)F)S(C)(=O)=O)nc3n2CC2CC2)nc2cc(C(=O)N3C[C@H](N)CC[C@@H]3C)ccn12` [Example 406, ~{N}-[2-[7-[(2~{S},5~{R})-5-amino-2-methylpiperidine-1-carbonyl]-3-ethylimidazo [1,2-a]pyridin-2-yl]-1-(cyclopropylmethyl)pyrrolo [2,3-b]pyridin-6-yl]-~{N}-(difluoromethyl) methanesulfonamide], the IC50 was 194 nM.

For the molecule `COc1cc(C(=O)N2[C@H]3CC[C@@H]2[C@H](N)C3)cc2nc(-c3cc4ccc([C@@H](C)NC(=O)N(C)Cc5ccccc5)nc4n3CC3CC3)c(C)n12` [Example 240, 3-[(1~{R})-1-[2-[7-[(1~{R},2~{R},4~{S})-2-amino-7-azabicyclo[2.2.1]heptane-7-carbonyl]-5-methoxy-3-methylimidazo [1,2-a]pyridin-2-yl]-1-(cyclopropylmethyl)pyrrolo [2,3-b]pyridin-6-yl]ethyl]-1-benzyl-1-methylurea], the IC50 is 84.4 nM.

`COc1cc(C(=O)N2C[C@H]3CNCC[C@H]32)cc2nc(-c3cc4ccc(N(C(F)F)S(C)(=O)=O)nc4n3CC3CC3)c(C)n12` [Example 284, ~{N}-[1-(cyclopropylmethyl)-2-[7-[(1~{R},6~{R})-3,7-diazabicyclo[4.2.0]octane-7-carbonyl]-5-methoxy-3-methylimidazo[1,2-a]pyridin-2-yl]pyrrolo[2,3-b]pyridin-6-yl]-~{N}-(difluoromethyl) methanesulfonamide]: the IC50 is 13400 nM.

For `COc1cc(C(=O)N2[C@H]3CCC[C@@H]2[C@H](N)C3)cc2nc(-c3cc4ccc(N(C(F)F)S(C)(=O)=O)nc4n3CC3CC3)c(C)n12` [Example 332, N-[2-[7-[(1S,5R,6R)-6-amino-8-azabicyclo[3.2.1]octane-8-carbonyl]-5-methoxy-3-methyl-imidazo [1,2-a]pyridin-2-yl]-1-(cyclopropylmethyl)pyrrolo [2,3-b]pyridin-6-yl]-N-(difluoromethyl) methanesulfonamide], the IC50 was found to be 390 nM.

In the case of `COc1cc(C(=O)N2[C@H]3CC[C@@H]2[C@H](N)C3)cc2nc(-c3cc4ccc([C@@H](C)NC(=O)C(C)C(F)(F)F)nc4n3CC3CC3)c(C)n12` (stereo partly drawn) [Example 7, ~{N}-[(1~{R})-1-[2-[7-[(1~{R},2~{R},4~{S})-2-amino-7-azabicyclo [2.2.1]heptane-7-carbonyl]-5-methoxy-3-methylimidazo [1,2-a]pyridin-2-yl]-1-(cyclopropylmethyl)pyrrolo[2,3-b]pyridin-6-yl]ethyl]-3,3,3-trifluoro-2-methylpropanamide], the IC50 is 127 nM.

On to `COc1cc(C(=O)N2CCC[C@@H](N)C2)cc2nc(-c3cc4ccc(O[C@@H](C)C(=O)N(C)C)nc4n3CC3CC3)c(C)n12` [Example 617, (2~{S})-2-[2-[7-[(3~{R})-3-aminopiperidine-1-carbonyl]-5-methoxy-3-methylimidazo[1,2-a]pyridin-2-yl]-1-(cyclopropylmethyl)pyrrolo [2,3-b]pyridin-6-yl]oxy-~{N},~{N}-dimethylpropanamide], for which the IC50 amounted to 6980 nM.

For `COc1cc(C(=O)N2[C@H]3CC[C@@H]2[C@H](N)C3)cc2nc(-c3cc4ccc([C@@H](C)NC(=O)c5cn(C)nc5Cl)nc4n3CC3CC3)c(C)n12` [Example 76, ~{N}-[(1~{R})-1-[2-[7-[(1~{R},2~{R},4~{S})-2-amino-7-azabicyclo[2.2.1]heptane-7-carbonyl]-5-methoxy-3-methylimidazo [1,2-a]pyridin-2-yl]-1-(cyclopropylmethyl)pyrrolo [2,3-b]pyridin-6-yl]ethyl]-3-chloro-1-methylpyrazole-4-carboxamide], the IC50 was found to be 58 nM.

Take `CCC(C)(O)c1ccc2cc(-c3nc4cc(C(=O)N5[C@H]6CC[C@@H]5[C@H](N)C6)cc(OC)n4c3C)n(CC3CC3)c2n1` (stereo partly drawn) [Example 572, [(1~{R},2~{R},4~{S})-2-amino-7-azabicyclo [2.2.1]heptan-7-yl]-[2-[1-(cyclopropylmethyl)-6-(2-hydroxybutan-2-yl)pyrrolo [2,3-b]pyridin-2-yl]-5-methoxy-3-methylimidazo[1,2-a]pyridin-7-yl]methanone]: the IC50 worked out at 152 nM.

`CCOC(=O)N(C)c1ccc2cc(-c3nc4cc(C(=O)N5[C@H]6CC[C@@H]5[C@H](N)C6)cc(OC)n4c3C)n(CC3CC3)c2n1` [Example 466, ethyl~{N}-[2-[7-[(1~{R},2~{R},4~{S})-2-amino-7-azabicyclo[2.2.1]heptane-7-carbonyl]-5-methoxy-3-methylimidazo [1,2-a]pyridin-2-yl]-1-(cyclopropylmethyl)pyrrolo [2,3-b]pyridin-6-yl]-~{N}-methylcarbamate]: the half-inhibitory concentration (IC50) amounted to 143 nM.

In the case of `COc1cc(C(=O)N2[C@H]3CC[C@@H]2[C@H](N)C3)cc2nc(-c3cc4ccc([C@H](NC(=O)C5(C#N)CC5)C(F)(F)F)nc4n3CC3CC3)c(C)n12` [Example 191, ~{N}-[(1~{S})-1-[2-[7-[(1~{R},2~{R},4~{S})-2-amino-7-azabicyclo[2.2.1]heptane-7-carbonyl]-5-methoxy-3-methylimidazo [1,2-a]pyridin-2-yl]-1-(cyclopropylmethyl)pyrrolo [2,3-b]pyridin-6-yl]-2,2,2-trifluoroethyl]-1-cyanocyclopropane-1-carboxamide], the IC50 is 708 nM.

For `COc1cc(C(=O)N2[C@H]3CC[C@@H]2[C@H](N)C3)cc2nc(-c3cc4ccc(N5CCN(c6ccccc6)CCS5(=O)=O)nc4n3CC3CC3)c(C)n12` [Example 444, [(1~{R},2~{R},4~{S})-2-amino-7-azabicyclo [2.2.1]heptan-7-yl]-[2-[1-(cyclopropylmethyl)-6-(1,1-dioxo-5-phenyl-1,2,5-thiadiazepan-2-yl)pyrrolo [2,3-b]pyridin-2-yl]-5-methoxy-3-methylimidazo [1,2-a]pyridin-7-yl] methanone], the IC50 stood at 130 nM.

Take `COc1cc(C(=O)N2[C@@H]3CC[C@@H](N)[C@H]2CC3)cc2nc(-c3cc4ccc(N(C(F)F)S(C)(=O)=O)nc4n3CC3CC3)c(C3CC3)n12` [Example 382, ~{N}-[2-[7-[(1~{R},2~{R}, 5~{R})-2-amino-8-azabicyclo[3.2.1]octane-8-carbonyl]-3-cyclopropyl-5-methoxyimidazo[1,2-a]pyridin-2-yl]-1-(cyclopropylmethyl)pyrrolo [2,3-b]pyridin-6-yl]-~{N}-(difluoromethyl) methanesulfonamide]: the IC50 amounted to 204 nM.

Turning to `COc1cc(C(=O)N2[C@H]3CC[C@@H]2[C@H](N)C3)cc2nc(-c3cc4ccc([C@@H](C)NC(=O)N5CCC(C(C)(C)O)C5)nc4n3CC3CC3)c(C)n12` (stereo partly drawn) [Example 203, ~{N}-[(1~{R})-1-[2-[7-[(1~{R},2~{R},4~{S})-2-amino-7-azabicyclo[2.2.1]heptane-7-carbonyl]-5-methoxy-3-methylimidazo [1,2-a]pyridin-2-yl]-1-(cyclopropylmethyl)pyrrolo [2,3-b]pyridin-6-yl]ethyl]-3-(2-hydroxypropan-2-yl) pyrrolidine-1-carboxamide], the IC50 is 32.4 nM.

Consider `COc1cc(C(=O)N2CCC[C@@H](N)C2)cc2nc(-c3cc4ccc([C@@H](C)NC(=O)C(C)(C)C)nc4n3CC3CC3)c(C3CC3)n12` [Example 143, ~{N}-[(1~{R})-1-[2-[7-[(3~{R})-3-aminopiperidine-1-carbonyl]-3-cyclopropyl-5-methoxyimidazo [1,2-a]pyridin-2-yl]-1-(cyclopropylmethyl)pyrrolo [2,3-b]pyridin-6-yl]ethyl]-2,2-dimethylpropanamide], for which the IC50 turned out to be 139 nM.

The record behind these values is patent US12240862B2, “Inhibitors of peptidylarginine deiminases” (Gilead Sciences, Inc., priority 2020, dated 2025).
